≈ marks a conversion by molar mass, not a printed value.

One data set concerns Mus musculus. The data set can be described thus: Anticataleptic activity in mouse assessed as inhibition of haloperidol-induced catalepsy at 10 mg/kg, po. The data set is classed as functional.
The target in a further data set is T1, Adenosine receptor A1 (Homo sapiens, UniProt P30542).
T1 sequence (P30542 whole entry): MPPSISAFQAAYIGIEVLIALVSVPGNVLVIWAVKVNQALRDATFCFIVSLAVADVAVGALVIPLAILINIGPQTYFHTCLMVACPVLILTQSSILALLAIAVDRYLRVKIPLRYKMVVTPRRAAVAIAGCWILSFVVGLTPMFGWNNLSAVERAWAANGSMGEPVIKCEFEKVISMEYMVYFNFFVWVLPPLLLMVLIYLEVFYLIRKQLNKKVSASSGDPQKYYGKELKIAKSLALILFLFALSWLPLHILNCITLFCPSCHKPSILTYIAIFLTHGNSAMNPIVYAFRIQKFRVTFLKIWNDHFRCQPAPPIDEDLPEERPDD

Data set [1] can be described thus: Solubility of the compound at pH 7.4. As to conditions: buffer. In kind it is physicochemical.
A further data set relates to Plasma. In words: Drug level in rat plasma measured per ml at 10 mg/kg, po. In kind it is ADME, organism-based. Set-up: dose 10 mg/kg, route oral. As to conditions: in vivo.
The target in data set [2] is Adenosine receptor A2a (Homo sapiens, UniProt P29274).
Chain of Adenosine receptor A2a (Homo sapiens, UniProt P29274) (P29274 whole entry): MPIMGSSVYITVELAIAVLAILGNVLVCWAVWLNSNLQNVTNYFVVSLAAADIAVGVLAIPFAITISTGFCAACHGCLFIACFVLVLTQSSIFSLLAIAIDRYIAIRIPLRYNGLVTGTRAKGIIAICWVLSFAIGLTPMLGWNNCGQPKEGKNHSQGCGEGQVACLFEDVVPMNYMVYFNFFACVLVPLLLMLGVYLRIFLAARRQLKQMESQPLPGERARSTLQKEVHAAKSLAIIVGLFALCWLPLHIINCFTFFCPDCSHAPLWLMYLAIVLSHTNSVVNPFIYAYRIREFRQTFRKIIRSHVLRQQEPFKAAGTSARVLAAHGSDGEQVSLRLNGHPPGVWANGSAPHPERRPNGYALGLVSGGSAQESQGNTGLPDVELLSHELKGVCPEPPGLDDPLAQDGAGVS
For another data set, the species on record is Homo sapiens. The data set can be described thus: Selectivity ratio of Ki for human recombinant adenosine A1 receptor to Ki for human recombinant adenosine receptor A2a.
Another data set has as its system Brain. In words: Drug level in rat brain measured per gram at 10 mg/kg, po. In kind it is ADME, organism-based. As to conditions: in vivo. Set-up: dose 10 mg/kg, route oral.
The next data set concerns the target T2, Adenosine receptor A3 (Homo sapiens, UniProt P0DMS8).
T2 sequence (P0DMS8 whole entry): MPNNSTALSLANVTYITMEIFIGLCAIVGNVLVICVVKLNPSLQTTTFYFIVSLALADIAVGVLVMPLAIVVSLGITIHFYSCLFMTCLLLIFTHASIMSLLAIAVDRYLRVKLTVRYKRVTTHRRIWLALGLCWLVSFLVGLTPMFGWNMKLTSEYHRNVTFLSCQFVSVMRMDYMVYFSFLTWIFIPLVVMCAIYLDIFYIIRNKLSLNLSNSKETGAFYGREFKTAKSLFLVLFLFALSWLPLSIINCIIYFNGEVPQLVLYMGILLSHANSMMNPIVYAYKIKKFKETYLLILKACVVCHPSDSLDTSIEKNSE

Data set [3] addresses Adenosine receptor A2a (Rattus norvegicus, UniProt P30543). The data set can be described thus: Binding affinity to adenosine receptor A2a in rat striatum. The data set is classed as tissue-based.

Chain of Adenosine receptor A2a (Rattus norvegicus, UniProt P30543) (P30543 whole entry): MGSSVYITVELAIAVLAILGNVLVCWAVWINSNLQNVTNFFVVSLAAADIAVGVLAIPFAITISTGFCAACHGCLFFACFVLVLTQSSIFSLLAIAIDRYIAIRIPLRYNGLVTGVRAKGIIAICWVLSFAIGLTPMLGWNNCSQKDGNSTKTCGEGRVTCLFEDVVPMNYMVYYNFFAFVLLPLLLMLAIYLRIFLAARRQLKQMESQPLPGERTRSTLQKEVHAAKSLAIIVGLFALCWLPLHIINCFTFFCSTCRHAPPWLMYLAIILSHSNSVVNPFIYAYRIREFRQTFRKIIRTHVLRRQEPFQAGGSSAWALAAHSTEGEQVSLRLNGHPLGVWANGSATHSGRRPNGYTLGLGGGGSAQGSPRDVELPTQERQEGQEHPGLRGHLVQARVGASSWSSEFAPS

Take `COC1CCN(c2cccc(-c3cc(NC(C)=O)nc(-n4nc(C)cc4C)n3)n2)CC1`: the inhibition in vivo (commonly the percentage by which the read-out fell short of the control) at 10 mg/kg in the data set with Mus musculus is 88%. In addition, the Ki – broadly, the dissociation constant of the complex between target and ligand, obtained from inhibition or displacement – at Adenosine receptor A1 turned out to be 77.2 nM; at Adenosine receptor A2a [2], 0.4 nM. Also, in data set [1], the solubility (in general, the dissolved amount per volume that the medium holds) is 30 µg/mL (≈ 71.2 µM). Also, in the data set on Plasma, the Cp came to 150 ng/mL. The Ratio Ki in the data set filed under Homo sapiens is 193. In the data set on Brain, this molecule registered a Drug uptake of 560 ng/g.
Molecule `Nc1nc2c(cnn2CCc2ccccc2)c2nc(-c3ccco3)nn12` [SCH-58261] had a Ki on Adenosine receptor A3 of 1200 nM. Further, binding on Adenosine receptor A2a [3] was put at a Kd of 0.7 nM.

The values above are taken from ChEMBL document CHEMBL3259781 (J Med Chem, 2014).
